Results on 43 compounds are retold here after US6407248B1, “α-unsaturated amines, their production and use” (Takeda Chemical Industries, Ltd., priority 1987, dated 2002).

This data set deals with Brown Planthoppers (Nilaparvata lugens). The experiment in a line: Effect against brown planthoppers (foliar spray on rice seedlings). It is filed as in vivo. To be noted: for mortality at 500 µg/mL: Nilaparvata lugens, foliar, 168 h, read-out: % Mortality after 7 days. The procedure: Effect Against Brown Planthoppers (Nilaparvata lugens)
An emulsifiable concentrate of the compound of the invention, prepared in the same manner as Example 112 below, was diluted with water to a concentration of 500 ppm and sprayed over the stems and leaves of rice seedlings in the 2-leaf stage at the rate of 10 ml per paper pot. Water was put in test tubes and the treated rice seedlings were placed therein. Then, 10 brown planthopper larvae were released in each tube, which was then capped with an aluminum cap. The test tubes were maintained in an incubator at 25° C. and the dead insects were counted 7 days after release. The % mortality was calculated using the following formula. [formula]

The mark [1] stands for this setting: emulsifiable concentrate diluted with water to 500 ppm, sprayed on rice seedlings (2-leaf stage), 10 ml per paper pot, 10 larvae per tube, 25° C., dead insects counted 7 days after release.

Read-outs that look alike come from different tables or passages of the source.

In the case of `CNC(=C[N+](=O)[O-])NCc1cccnc1` [Compound 3, 1-Methylamino-1-(3-pyridylmethyl)amino-2-nitroethylene], the mortality at 500 µg/mL came to 100%. Consider `CCNC(=C[N+](=O)[O-])NCc1cccnc1` [Compound 4, 1-Ethylamino-1-(3-pyridylmethyl)amino-2-nitroethylene], for which the mortality at 500 µg/mL stood at 100%. On to `C=CCNC(=C[N+](=O)[O-])NCc1cccnc1` [Compound 7, 1-Allylamino-1-(3-pyridylmethyl)amino-2-nitroethylene], for which, under setting [1], the mortality at 500 µg/mL amounted to 100%. On to `CN(C)CCNC(=C[N+](=O)[O-])NCc1cccnc1` [Compound 12, 1-(2-Dimethylaminoethyl)amino-1-(3-pyridylmethyl)amino-2-nitroethylene], for which the mortality at 500 µg/mL under setting [1] was determined as 100%. For the compound `COCCNC(=C[N+](=O)[O-])NCc1cccnc1` [Compound 14, 1-(2-Methoxyethyl)amino-1-(3-pyridylmetyl)amino-2-nitroethylene], the “% Mortality after 7 days” value under setting [1] worked out at 100%.

Regarding `C[Si](C)(C)CNC(=C[N+](=O)[O-])NCc1cccnc1` [Compound 17, 1-(3-Pyridylmethyl)amino-1-(trimethylsilylmethyl)amino-2-nitroethylene], the mortality at 500 µg/mL was determined as 100%.

Turning to `NNC(=C[N+](=O)[O-])NCc1cccnc1` [Compound 18, 1-Hydrazino-1-(3-pyridylmethyl)amino-2-nitroethylene], the mortality at 500 µg/mL amounted to 100%. With `CN(C)C(=C[N+](=O)[O-])NCc1cccnc1` [Compound 19, 1-Dimethylamino-1-(3-pyridylmethyl)amino-2-nitroethylene], the mortality at 500 µg/mL was determined as 100%. As for `O=[N+]([O-])C=C(NCc1cccnc1)N1CCCC1` [Compound 20, 1-(3-Pyridylmethyl)amino-1-pyrrolidino-2-nitroethylene], the mortality at 500 µg/mL under setting [1] was found to be 100%. As for `CN(C)NC(=C[N+](=O)[O-])NCc1cccnc1` [Compound 24, 1-(2,2-Dimethyl-1-hydrazino)-1-(3-pyridylmethyl)amino-2-nitroethylene], the “% Mortality after 7 days” value under setting [1] is listed as 100%. Take `CN(Cc1cccnc1)C(N)=C[N+](=O)[O-]` [Compound 25, 1-Amino-1-(N-methyl-N-3-pyridylmethyl)amino-2-nitroethylene]: under setting [1], the “% Mortality after 7 days” value is on record as 100%. With `CNC(=C[N+](=O)[O-])N(C)Cc1cccnc1` [Compound 26, 1-Methylamino-1-(N-methyl-N-3-pyridylmethyl)amino-2-nitroethylene], the “% Mortality after 7 days” value under setting [1] stood at 100%. For the compound `CNC(=C[N+](=O)[O-])NCc1ccc(Cl)nc1` [Compound 28, 1-(6-Chloro-3-pyridylmethyl)amino-1-methylamino-2-nitroethylene], the mortality at 500 µg/mL is 100%. Turning to `CNC(=C[N+](=O)[O-])N(C)Cc1ccc(Cl)nc1` [Compound 29, 1-[N-(6-Chloro-3-pyridylmethyl)-N-methyl]amino-1-methylamino-2-nitroethylene], the “% Mortality after 7 days” value under setting [1] turned out to be 100%.

Consider `CCN(Cc1cccnc1)C(=C[N+](=O)[O-])NC` [Compound 31, 1-[N-Ethyl-N-(3-pyridylmethyl)]amino-1-methylamino-2-nitroethylene], for which the “% Mortality after 7 days” value under setting [1] is 100%. `CNC(=C[N+](=O)[O-])N(Cc1cccnc1)CC(OC)OC` [Compound 32, 1-[N-(2-Dimethoxyethyl)-N-(3-pyridylmethyl)]amino-1-methylamino-2-nitroethylene]: the “% Mortality after 7 days” value under setting [1] is on record as 100%. As to `CCNC(=C[N+](=O)[O-])N(C)Cc1cccnc1` [Compound 33, 1-Ethylamino-1-[N-methyl-N-(3-pyridylmethy)]amino-2-nitroethylene], the “% Mortality after 7 days” value under setting [1] was 100%. As to `CCCCNC(=C[N+](=O)[O-])N(C)Cc1cccnc1` [Compound 34, 1-n-Butylamino-1-[N-methyl-N-(3-pyridylmethyl)]amino-2-nitroethylene], the “% Mortality after 7 days” value under setting [1] is 100%. The same measure, in the same setting: to `CNC(=C[N+](=O)[O-])N(CCOC)Cc1cccnc1` [Compound 35, 1-Methyl-amino-1-[N-(2-methoxyethyl)-N-(3-pyridylmethyl)]amino-2-nitroethylene] belongs 100%. Same read-out and setting: with `CC(C)NC(=C[N+](=O)[O-])N(C)Cc1cccnc1` [Compound 37, 1-iso-Propylamino-1-[N-methyl-N-(3-pyridylmethyl)]-amino-2-nitroethylene] the figure was 100%.

In the case of `CN(Cc1cccnc1)C(=C[N+](=O)[O-])NCc1ccccc1` [Compound 38, 1-Benzylamino-1-[N-methyl-N-(3-pyridylmethyl)l]amino-2-nitroethylene], the “% Mortality after 7 days” value under setting [1] amounted to 100%.

For the compound `CNC(=C[N+](=O)[O-])N(C)C(C)c1cccnc1` (stereo not shown) [Compound 40, 1-Metylamino-1-[N-methyl-N-[1-(3-pyridyl)ethyl]]amino-2-nitroethylene], the “% Mortality after 7 days” value under setting [1] is on record as 100%. `CNC(=C[N+](=O)[O-])N(Cc1cccnc1)N(C)C` [Compound 41, 1-[2,2-Dimethyl-1-(3-pyridylmethyl)]hydrazino-1-methylamino-2-nitroethylene]: the “% Mortality after 7 days” value under setting [1] came to 100%. Still for that read-out and setting: to `CCCN(Cc1cccnc1)C(=C[N+](=O)[O-])NC` [Compound 42, 1-Methylamino-1-[N-(n-propyl)-N-(3-pyridylmethyl)]amino-2-nitroethylene] belongs 100%. Turning to `CCCCN(C(=C[N+](=O)[O-])NC)c1cccnc1` [Compound 43], the “% Mortality after 7 days” value under setting [1] was 100%. Regarding `CNC(=C[N+](=O)[O-])N(Cc1ccccc1)Cc1cccnc1` [Compound 44, 1-[N-Benzyl-N-(3-pyridylmethyl)]amino-1-methylamino-2-nitroethylene], the “% Mortality after 7 days” value under setting [1] worked out at 100%. Same read-out and setting: to `CN(Cc1ccc(Cl)nc1)C(N)=C[N+](=O)[O-]` [Compound 45, 1-Amino-1-[N-(6-chloro-3-pyridylmethyl)-N-methyl]-amino-2-nitroethylene] belongs 100%. Consider `CN(C)C(=C[N+](=O)[O-])NCc1ccc(Cl)nc1` [Compound 46, 1-(6-Chloro-3-pyridylmethyl)amino-1-dimethylamino-2-nitroethylene], for which the mortality at 500 µg/mL is 100%. With `CNC(=C[N+](=O)[O-])NCc1ccc(Cl)nc1Cl` [Compound 47, 1-(2,6-Dichloro-3-pyridylmethyl)amino-1-methylamino-2-nitroethylene], the mortality at 500 µg/mL came out at 100%. Take `CC(C)N(Cc1ccc(Cl)nc1)C(N)=C[N+](=O)[O-]` [Compound 49, 1-Amino-1-(N-(6-chloro-3-pyridylmethyl)-N-i-propyl]amino-2-nitroethylene]: the mortality at 500 µg/mL is 100%. In the case of `CCN(C)C(=C[N+](=O)[O-])NCc1ccc(Cl)nc1` [Compound 50, 1-(6-Chloro-3-pyridylmethyl)amino-1-(N-ethyl-N-methyl)amino-2-nitroethylene], the mortality at 500 µg/mL was determined as 100%. Take `NNC(=C[N+](=O)[O-])NCc1ccc(Cl)nc1` [Compound 51, 1-(6-Chloro-3-pyridylmethyl)amino-1-hydrazino-2-nitroethylene]: the mortality at 500 µg/mL stood at 100%. Consider `CN(C)NC(=C[N+](=O)[O-])NCc1ccc(Cl)nc1` [Compound 52, 1-(6-Chloro-3-pyridylmethyl)amino-1-(2,2-dimethyl-1-hydrazino)-2-nitroethylene], for which the mortality at 500 µg/mL stood at 100%. On to `CNC(=C[N+](=O)[O-])N(C)CCc1cccnc1` [Compound 55, 1-Methylamino-1-[N-methyl-N-[2-(3-pyridyl)ethyl]-amino]-2-nitroethylene], for which the mortality at 500 µg/mL under setting [1] was found to be 100%. For `CN(Cc1cccnc1)C(=C[N+](=O)[O-])N(C)Cc1cccnc1` [Compound 57, 1,1-bis(N-methyl-N-3-pyridylmethyl)amino-2-nitroethylene], the mortality at 500 µg/mL under setting [1] is 100%. For the compound `CN(C)C(=C[N+](=O)[O-])N(C)Cc1ccc(Cl)nc1` [Compound 58, 1-[N-(6-Chloro-3-pyridylmethyl)-N-methyl]amino-1-dimethylamino-2-nitroethylene], the mortality at 500 µg/mL is 100%. For `CCN(Cc1ccc(Cl)nc1)C(N)=C[N+](=O)[O-]` [Compound 59, 1-Amino-1-[N-(6-chloro-3-pyridylmethyl)-N-ethyl]-amino-2-nitroethylene], the mortality at 500 µg/mL came out at 100%.

Consider `CCN(Cc1ccc(Cl)nc1)C(=C[N+](=O)[O-])NC` [Compound 60, 1-[N-(6-Chloro-3-pyridylmethyl)-N-ethyl]amino-1-methylamino-2-nitroethylene], for which the “% Mortality after 7 days” value under setting [1] is on record as 100%. Regarding `CNC(=C[N+](=O)[O-])N(C)Cc1ccc(OC)nc1` [Compound 61, 1-[N-(6-Methoxy-3-pyridylmethyl)-N-methyl]amino-1-methylamino-2-nitroethylene], under setting [1], the mortality at 500 µg/mL is 100%. For the compound `CNC(=C[N+](=O)[O-])N(C)Cc1ccncc1` [Compound 62, 1-Methylamino-1-[N-methyl-N-(4-pyridylmethyl)]-amino-2-nitroethylene], the mortality at 500 µg/mL under setting [1] worked out at 100%. On the same count and under the same terms, to `CNC(=C[N+](=O)[O-])N(Cc1cccnc1)OC` [Compound 64, 1-[N-methoxy-N-(3-pyridylmethyl)]amino-1-methyl-amino-2-nitroethylene] belongs 100%; to `CN(C=O)C(=C[N+](=O)[O-])N(C)Cc1cccnc1` [Compound 65, 1-(N-Formyl-N-methyl)amino-1-[N-methyl-N-(3-pyridyl-methyl)]amino-2-nitroethylene], 100%. As to `COCCNC(=C[N+](=O)[O-])N(C)Cc1cccnc1` [Compound 67, 1-(2-Methoxyethyl)amino-1-[N-methyl-N-(3-pyridylmethyl)]amino-2-nitroethylene], the mortality at 500 µg/mL under setting [1] is 100%.
